# Laboratory results reported in US8835466B2, “Synthesis and uses of pyroglutamic acid derivatives” (Prodimed, S.A., priority 2006, dated 2014).
# Tests used:
# [1] = tested on: KLN 205 cells (lung cell carcinoma); assay: Effect of 9d in combination with Cisplatin on tumour growth, KLN 205 (Example 11); format: in vivo, DBA/2 mice; conditions: for Tumour surface, overall values (Mean) / Tumour surface, overall values (Median) / Tumour volume, overall values (Mean) / Tumour volume, overall values (Median): 9d 250 ng, Cisplatin 65 μg i.p. days 3, 6, 10, 13, 17, 20
# Protocol: This was carried out by measuring two perpendicular diameters (d1/d2) with a calliper. These measures were used to obtain both tumour surface and volume: […] Results were expressed as single values and/or as the mean±SD or median from each experimental group. This assay was made in order to check the effect on in vivo tumour growth in mice challenged with KLN 205 cells. Their effect was compared with the combination of Cisplatin plus 9d and/or placebo. KLN 205 is a lung cell carcinoma originated in DBA/2 mouse strain, and therefore syngeneic in mice with DBA/2 genetic background (Kaneko T and […]. Growth characteristics and drug responses of a murine lung carcinoma in vitro and in vivo. Cancer Res. 38: 2084-2090; 1978). KLN 205 cells (CLS, Eppelheim, Germany) were maintained in vitro by serial passages every 3-4 days. […] Louis, Mo., USA) by seeding 5×10^6 cells onto 75 cm^2 culture flasks. Subcultures were carried out by collecting detached cells after treatment with trypsin-EDTA (Sigma, St. Louis, Mo., USA). Tumour cells, collected from 48 hour cultures, were used as source of KLN 205 cells for the studies described below. […] Tumours were established by subcutaneous inoculation in the right hind flank. Mice (DBA/2) were inoculated with 0.2 mL containing 2×10^5 viable KLN 205 cells. The day of subcutaneous inoculation will be considered Day 0 of the test. A case-control study was performed with treated and control mice in order to determine whether differences between placebo, 9d, Cisplatin or 9d+Cisplatin were present. […] The t-test was chosen for being one of the better known parametrical tests.
# [2] = tested on: Lewis lung cells (lung cell carcinoma); assay: Effect of 9d in combination with Cisplatin on tumour growth, Lewis lung (Example 13); format: in vivo, C57BL/6J mice; conditions: for SURFACE Overall values (Mean) / SURFACE Overall values (Median) / VOLUME Overall values (Mean) / VOLUME Overall values (Median): Cisplatin 65 μg, or both
# Text: This assay was made in order to check the effect on in vivo tumour growth in mice challenged with Lewis lung cells. Their effect will be compared with the combination of chemotherapeutic agents plus 9d and/or placebo. Lewis Lung is a lung cell carcinoma originated in C57BL/6J mice strain, and therefore syngeneic in mice with C57BL/6J genetic background (Rodrigo Garzón M, Tirapu Fernández de la Cuesta […], Noel […] and […]. Use of Gene Therapy in a Subcutaneous Murine Model of Lung Cancer. Arch Bronconeumology. 42: 526-532; 2006). Lewis lung cells (CLS, Eppelheim, Germany) were maintained in vitro by serial passages every 3-4 days. […] Louis, Mo., USA) by seeding 5×10^6 cells onto 75 cm^2 culture flasks. Subcultures were carried out by collecting detached cells after treatment with trypsin-EDTA (Sigma, St. Louis, Mo., USA). Tumour cells, collected from 48 hour cultures, were used as source of Lewis Lung cells for the studies described below. […] Tumours were established by subcutaneous inoculation in the right hind flank. Mice were inoculated with 0.2 mL containing 2×10^5 viable cells. The day of subcutaneous inoculation will be considered Day 0 of the test. Mice were observed daily and the tumour size recorded twice a week. This was carried out by measuring two perpendicular diameters (d1/d2) with a calliper. These measures were used to obtain both tumour surface and volume: […] Results were expressed as single values and/or as the mean±SD or median from each experimental group. A case-control study was performed with treated and control mice in order to determine whether differences between placebo, 9d, Cisplatin or 9d+Cisplatin were present. The data obtained (tumour surface and volume) were tested for Normal distribution within the groups (Kolmogorov Smirnov test p<0.05). […] The U-test of Mann Withney was chosen for being one of the better known non-parametrical tests, anyway, results for this test are equivalent both to those of Wilcoxon's sum of ranges and Kruskal-Wallis two-groups test. We excluded of the study animals that have undetectable or unscored tumour on 31th day after tumour inoculation. Due to the high dispersion of data, outlayers were excluded of the study.
# [3] = day 10 after tumour inoculation
# [4] = day 13 after tumour inoculation
# [5] = day 17 after tumour inoculation
# [6] = day 20 after tumour inoculation
# [7] = day 24 after tumour inoculation
# [8] = day 27 after tumour inoculation
# [9] = day 31 after tumour inoculation
# [10] = day 34 after tumour inoculation
# [11] = day 38 after tumour inoculation
# [12] = 9d 250 ng, day 0 after tumour inoculation
# [13] = 9d 250 ng, day 10 after tumour inoculation
# [14] = 9d 250 ng, day 13 after tumour inoculation
# [15] = 9d 250 ng, day 17 after tumour inoculation
# [16] = 9d 250 ng, day 20 after tumour inoculation
# [17] = 9d 250 ng, day 24 after tumour inoculation
# [18] = 9d 250 ng, day 27 after tumour inoculation
# [19] = 9d 250 ng, day 31 after tumour inoculation
smiles,measurement,setting,value
"Br.N[C@]1(C[n+]2ccccc2)C[C@H](C(=O)O)NC1=O.[Br-] (single isomer, unassigned; isomer 4) [isomer 4, 3S,5R-1-(3-Amino-5-carboxy-2-oxopyrrolidin-3-ylmethyl)pyridinium bromide hidrobromide]","Tumour surface, overall values (Mean)",[1]; day 0 after tumour inoculation,0 mm^2
same,"Tumour surface, overall values (Median)",[1]; day 0 after tumour inoculation,0 mm^2
same,"Tumour volume, overall values (Mean)",[1]; day 0 after tumour inoculation,0 mm^3
same,"Tumour volume, overall values (Median)",[1]; day 0 after tumour inoculation,0 mm^3
same,"Tumour surface, overall values (Mean)",[1]; [3],5.38 mm^2
same,"Tumour surface, overall values (Median)",[1]; [3],4 mm^2
same,"Tumour volume, overall values (Mean)",[1]; [3],8.81 mm^3
same,"Tumour volume, overall values (Median)",[1]; [3],4 mm^3
same,"Tumour surface, overall values (Mean)",[1]; [4],17.25 mm^2
same,"Tumour surface, overall values (Median)",[1]; [4],16 mm^2
same,"Tumour volume, overall values (Mean)",[1]; [4],43.38 mm^3
same,"Tumour volume, overall values (Median)",[1]; [4],32 mm^3
same,"Tumour surface, overall values (Mean)",[1]; [5],29.88 mm^2
same,"Tumour volume, overall values (Mean)",[1]; [5],94.56 mm^3
same,"Tumour surface, overall values (Mean)",[1]; [6],57.06 mm^2
same,"Tumour surface, overall values (Median)",[1]; [6],36 mm^2
same,"Tumour volume, overall values (Mean)",[1]; [6],246.03 mm^3
same,"Tumour volume, overall values (Median)",[1]; [6],108 mm^3
same,"Tumour surface, overall values (Mean)",[1]; [7],81.38 mm^2
same,"Tumour surface, overall values (Median)",[1]; [7],64 mm^2
same,"Tumour volume, overall values (Mean)",[1]; [7],393.25 mm^3
same,"Tumour volume, overall values (Median)",[1]; [7],256 mm^3
same,"Tumour surface, overall values (Mean)",[1]; [8],113.5 mm^2
same,"Tumour surface, overall values (Median)",[1]; [8],105.5 mm^2
same,"Tumour volume, overall values (Mean)",[1]; [8],611.75 mm^3
same,"Tumour volume, overall values (Median)",[1]; [8],446.75 mm^3
same,"Tumour surface, overall values (Mean)",[1]; [9],135.31 mm^2
same,"Tumour surface, overall values (Median)",[1]; [9],132.5 mm^2
same,"Tumour volume, overall values (Mean)",[1]; [9],777.53 mm^3
same,"Tumour volume, overall values (Median)",[1]; [9],628.75 mm^3
same,"Tumour surface, overall values (Mean)",[1]; [10],168.81 mm^2
same,"Tumour surface, overall values (Median)",[1]; [10],170.5 mm^2
same,"Tumour volume, overall values (Mean)",[1]; [10],1068.3 mm^3
same,"Tumour volume, overall values (Median)",[1]; [10],937.75 mm^3
same,"Tumour surface, overall values (Mean)",[1]; [11],214.44 mm^2
same,"Tumour surface, overall values (Median)",[1]; [11],227.5 mm^2
same,"Tumour volume, overall values (Mean)",[1]; [11],1504.7 mm^3
same,"Tumour volume, overall values (Median)",[1]; [11],1478.8 mm^3
same,"KLN 205 tumour growth vs. placebo, tendency in words","[1]; either in surface or volume, all days scored after day 31th, t-test",significant tendency
same,"Differences in KLN 205 tumour growth rate vs. placebo, in words","[1]; t-test, 250 ng i.p.",not differences
same,"Inhibition of the in vivo growth of Lewis lung tumour in inbred mice, in words","[2]; 9d 250 ng, Cisplatin 65 μg i.p.",inhibit the in vivo growth
same,SURFACE Overall values (Mean),[2]; [12],0 mm^2
same,SURFACE Overall values (Median),[2]; [12],0 mm^2
same,VOLUME Overall values (Mean),[2]; [12],0 mm^3
same,VOLUME Overall values (Median),[2]; [12],0 mm^3
same,SURFACE Overall values (Mean),[2]; [13],2 mm^2
same,SURFACE Overall values (Median),[2]; [13],0 mm^2
same,VOLUME Overall values (Mean),[2]; [13],2.27 mm^3
same,VOLUME Overall values (Median),[2]; [13],0 mm^3
same,SURFACE Overall values (Mean),[2]; [14],6.47 mm^2
same,SURFACE Overall values (Median),[2]; [14],4 mm^2
same,VOLUME Overall values (Mean),[2]; [14],12.5 mm^3
same,VOLUME Overall values (Median),[2]; [14],4 mm^3
same,SURFACE Overall values (Mean),[2]; [15],20.13 mm^2
same,SURFACE Overall values (Median),[2]; [15],24 mm^2
same,VOLUME Overall values (Mean),[2]; [15],52.73 mm^3
same,VOLUME Overall values (Median),[2]; [15],48 mm^3
same,SURFACE Overall values (Mean),[2]; [16],34.33 mm^2
same,SURFACE Overall values (Median),[2]; [16],36 mm^2
same,VOLUME Overall values (Mean),[2]; [16],112.3 mm^3
same,VOLUME Overall values (Median),[2]; [16],108 mm^3
same,SURFACE Overall values (Mean),[2]; [17],60.6 mm^2
same,SURFACE Overall values (Median),[2]; [17],80 mm^2
same,VOLUME Overall values (Mean),[2]; [17],253.77 mm^3
same,VOLUME Overall values (Median),[2]; [17],320 mm^3
same,SURFACE Overall values (Mean),[2]; [18],104.8 mm^2
same,SURFACE Overall values (Median),[2]; [18],88 mm^2
same,VOLUME Overall values (Mean),[2]; [18],557.13 mm^3
same,VOLUME Overall values (Median),[2]; [18],364.5 mm^3
same,SURFACE Overall values (Mean),[2]; [19],141.8 mm^2
same,SURFACE Overall values (Median),[2]; [19],130 mm^2
same,VOLUME Overall values (Mean),[2]; [19],887.17 mm^3
same,VOLUME Overall values (Median),[2]; [19],665.5 mm^3
same,"Differences in Lewis Lung tumour growth rate vs. placebo, statistical significance p (Mann-Whitney U test)","[2]; either in surface or volume, all days scored after the day 13th",< 0.05
